Source: patent publication US11311553B1, “Methods of treating 4-repeat tauopathies” (priority 2020, dated 2022)

Key:
[1] = system: PSP; conditions: literature clinical trials in PSP patients; cited from earlier work
[2] = 1-hydroxy (M3) metabolite formed in vivo; cited from earlier work
[3] = system: subjects with probable or possible PSP; assay: Fasudil treatment of subjects with probable or possible PSP, assessed at baseline, six months and one year; format: in vivo, human; conditions: fasudil 180 mg/day (60 mg tid)

Row | Molecule | clinical effect / benefit in PSP [1] | also measured
1 | CC[C@H](C)[C@H](NC(=O)[C@H](CO)NC(=O)[C@@H](NC(=O)[C@@H]1CCCN1C(=O)[C@H](C)NC(=O)[C@@H](N)CC(N)=O)C(C)C)C(=O)N1CCC[C@H]1C(=O)N[C@@H](CCC(N)=O)C(=O)O [Davunetide] | not shown not to be effective | 
2 | O=S(=O)(c1cccc2c(O)nccc12)N1CCCNCC1 [M3, hydroxyfasudil] |  | half-life [2]: about 8 hours
3 | O=C(Oc1ccccc1C(=O)O)c1ccccc1O [Salsalate] | failed | 
4 | C=CC1O[C@H]2C[C@H]3OC[C@@]3(OC(C)=O)[C@H]3[C@H](OC(=O)c4ccccc4)[C@]4(O)C[C@H](OC(=O)[C@H](O)[C@H](CC(C)C)NC(=O)OC(C)(C)C)C(C)=C([C@H](OC(C)=O)[C@H](O1)[C@]23C)C4(C)C (some centres unmarked) [TPI 287] | failed to show any effect | 
5 | COC1=C(OC)C(=O)C(C/C=C(\C)CC/C=C(\C)CC/C=C(\C)CC/C=C(\C)CC/C=C(\C)CC/C=C(\C)CC/C=C(\C)CC/C=C(\C)CC/C=C(\C)CCC=C(C)C)=C(C)C1=O [coenzyme Q10] | failed to provide benefit | 
6 | Cl.O=S(=O)(c1cccc2cnccc12)N1CCCNCC1 [fasudil, Hexahydro-1-(5-isoquinolinesulfonyl)-1H-1,4-diazepine monohydrochloride hemihydrate] |  | Oculomotor parameters [3]: improve; sleep parameters [3]: improve
7 | Nc1nc2ccc(OC(F)(F)F)cc2s1 [riluzole] | failed to demonstrate effects | 
8 | O=c1sn(-c2cccc3ccccc23)c(=O)n1Cc1ccccc1 [tideglusib] | failed to show benefit | 
9 | Gosuranemab: a humanized monoclonal antibody that targets N-terminal tau (antibody, chains of the INN, looked up, V domains shown) VH: EVHLVESGGALVKPGGSLRLSCAASGFSFSKYGMSWVRQAPGKGLEWVATISSSGSRTYYPDSVKGRFTISRDNAKNTLYLQMNSLRAEDTAMYYCSISWDGAMDYWGQGTTVTVSS VL: DVVMTQSPLSLPVTLGQPASISCKSSQSIVHSNGNTYLEWYLQKPGQSPQLLVYKVSNRFSGVPDRFSGSGSGTDFTLKISRVEAEDVGTYYCFQGSLVPWAFGGGTKVEIK | no effect | 
10 | ABBV-8E12: humanized anti-tau monoclonal antibody (antibody, chains of the INN, looked up, V domains shown) VH: EVKVVESGGGLVQPGGSMKLSCVVSGFTFSNYWVNWVRQAPGKGLEWVAQIRLKSDNYATHYEESVKGRFTISRDDSKSSVYLQMNNLRAEDSGIYYCTNWEDYWGQGTTVTVSS VL: DIVLTQSPDSLAVSLGERATISCRASQSVSTSRYSYIHWYQQKPGQPPKLLIKYASNLESGVPSRFSGSGSGTDFTLNIHPLEPEDFATYYCHHSWEIPLTFGQGTKLEIK | failed to demonstrate an effect | 
